From PubChem BioAssay AID489032 (Sanford-Burnham Center for Chemical Genomics, 2010)
Calls of active or inactive are those of the source. No rule for the calls is given here.

tested on: UPR adaptive arm reporter cells, luciferase luminescence; test: adaptive unfolded protein response reporter activation – cell-based, luciferase luminescence, dose response (AID 489032)

Row | SMILES | EC50
1 | COc1ccc(C2NCCc3c2[nH]c2ccccc32)cc1COc1ccc(F)cc1 (stereo not given) | > 80 µM (inactive)
2 | CN(C)CC/C=C1\c2ccc(F)cc2Sc2cc(F)c(Cl)cc21 | 15.8 µM
3 | COc1ccccc1C(=O)NC(=S)NNC(=O)c1sc2ccccc2c1Cl | > 80 µM (inactive)
4 | Cc1ccc(NC(=O)COc2ccc(/C=C3/SC(=Nc4ccccc4)N(Cc4cccnc4)C3=O)cc2)cc1 | 34.4 µM (inactive)
5 | O=C(COC(=O)c1ccc2[nH]c3c(c2c1)CCCC3)Nc1ccccc1Cl | > 80 µM (inactive)
6 | CCNC(=O)c1c(NC(=O)c2cc(-c3cc(C)ccc3O)n[nH]2)sc2c1CCCC2 | > 80 µM (inactive)
7 | Cn1c(Cl)cnc1C1CC(=O)c2cc(Cl)ccc2O1 (stereo not given) | 18.9 µM
8 | O=C(Nc1ccc(NC(=O)c2sc3ccccc3c2Cl)cc1Cl)c1ccco1 | 22 µM (inactive)
9 | CC1CCc2c(sc(NC(=O)CCc3nc4ccccc4c(=O)[nH]3)c2C#N)C1 (stereo not given) | 30.3 µM (inactive)
10 | COc1ccccc1-c1sc2cc3c(cc2c1-c1ccc(OCCN2CCCCC2)cc1)OCO3 | > 80 µM (inactive)
11 | O=C(COc1ccc(/C=N/NC(=O)c2cc3ccccc3o2)cc1Br)Nc1ccccc1 | > 80 µM (inactive)
12 | CCC[C@@H](CN[C@@H](CNC)[C@H](C)CC)NCC1CCC(C(C)(C)C)CC1 (stereo not given in full) | > 80 µM (inactive)
13 | COc1ccccc1-c1cc(-c2ccccc2)nc(SC(C(N)=O)c2ccccc2)c1C#N (stereo not given) | 71.2 µM (inactive)
14 | Cc1cccc2sc(NC(=O)c3cc(S(=O)(=O)N(C)C)ccc3N3CCCC3)nc12 | 9.84 µM
15 | COc1ccc2[nH]c3c(c2c1)CCN1C(=O)C(CC(=O)NC/C=C(\C)CCC=C(C)C)C[C@H](C(=O)N(C(C)C)C(C)C)[C@@]31C (stereo not given in full) | 60.1 µM (inactive)
16 | Cc1ccc2nsnc2c1NC(=O)c1ccc(-c2cc(Cl)ccc2Cl)o1 | > 80 µM (inactive)
17 | COc1ccc(C(=O)Oc2cc3c4c(c2)C(C)=CC(C)(C)N4C(=O)C3=O)cc1OC | 25.4 µM (inactive)
18 | CCc1nn(-c2cc(Oc3cccc4ccccc34)nc(-c3ccccc3)n2)c(N)c1C#N | 49.2 µM (inactive)
19 | Cc1ccccc1NC(=O)c1ccc(N/N=C/c2ccccc2O)c([N+](=O)[O-])c1 | > 80 µM (inactive)
20 | COc1ccc(N2CCN(Cc3nc(N)nc(Nc4ccc(C)c(Cl)c4)n3)CC2)cc1 | 18.4 µM
21 | CCOC(=O)c1nnc(-c2ccc(C)cc2)nc1Oc1ccc(Cl)cc1Cl | 40 µM (inactive)
22 | Cc1ccc(-c2nnc(-c3ccc(NC(=O)Cc4cccs4)cc3)o2)cc1 | > 80 µM (inactive)
23 | Cc1ccc(Nc2nc(NCc3ccco3)c3ccccc3n2)cc1 | 17.8 µM

Row | SMILES | EC50
24 | CCOC(=O)c1nnc(-c2ccccc2)nc1Oc1ccc(Cl)cc1 | > 80 µM (inactive)
25 | COc1ccc(-c2nc3scc(-c4ccc(OC)c(OC)c4)c3c(=O)o2)cc1 | > 80 µM (inactive)
26 | CC(C)=CCCC1(C)C=Cc2c(ccc3c2[nH]c2cc(O)c(C)cc23)O1 (stereo not given) | > 80 µM (inactive)
27 | NS(=O)(=O)c1ccc(NC(=O)COC(=O)c2cn(-c3ccccc3)nc2-c2ccc(F)cc2)cc1 | > 80 µM (inactive)
28 | CCC(C)Nc1nc(N)c([N+](=O)[O-])c(NC2CCCCC2)n1 (stereo not given) | 55.9 µM (inactive)
29 | N#C/C(=C\c1ccc(OCc2ccccc2)cc1)C(=O)Nc1nc2c(s1)CCN(Cc1ccccc1)C2 | > 80 µM (inactive)
30 | O=[N+]([O-])c1cccc(/C=C/c2ccc3cccc(O)c3n2)c1 | 28.7 µM (inactive)
31 | Brc1cc2c(cc1/C=N/Nc1nc3ccccc3s1)OCO2 | 57 µM (inactive)
32 | CCOC(=O)c1sc(NC(=S)NC(=O)c2ccccc2)c(C(=O)OCC)c1C | > 80 µM (inactive)
33 | Cc1ccc(-c2nnc(-c3ccc(NC(=O)c4cccs4)cc3)o2)cc1 | 15.9 µM
34 | COc1ccc(/C=c2\s/c(=C(/C#N)C(=O)NCc3ccco3)n(-c3ccccc3)c2=O)cc1 | > 80 µM (inactive)
35 | Cc1nc(NC(=O)CSc2ccc(-c3nc4ccccc4[nH]3)cn2)sc1C | > 80 µM (inactive)
36 | CC1CCN(Cc2c(C(=O)N/N=C/c3ccc(C(C)(C)C)cc3)nnn2-c2nonc2N)CC1 | > 80 µM (inactive)
37 | N#Cc1cnn2c1nc(N1CCCCC1)c1ccccc12 | > 80 µM (inactive)
38 | CCc1nc(N=Nc2c(O)[nH]c3ccccc23)c2c3c(sc2n1)CCC3 | 16.1 µM
39 | CCCn1c(SCc2nc3sc(C)c(C)c3c(=O)[nH]2)nc2ccccc2c1=O | 72 µM (inactive)
40 | CSC1=NC(C)(C)C=C(/C=C/c2ccc(Cl)cc2)N1 | > 80 µM (inactive)
41 | CC(C)(C)C(=O)NC(=S)NNC(=O)C(c1ccccc1)c1ccccc1 | 27 µM (inactive)
42 | COc1ccc(NC(=O)CSc2nc3ccc(Nc4nc(N5CCOCC5)nc(N5CCOCC5)n4)cc3s2)cc1 | > 80 µM (inactive)
43 | CCCCOc1ccccc1NC(=O)Cn1c(-c2nonc2N)nc2ccccc21 | 22 µM (inactive)
44 | Cc1ccc(C(=O)Nc2cc(S(=O)(=O)N3CCOCC3)ccc2N2CCCC2)cc1 | 63.2 µM (inactive)
45 | OCCNc1nc(Nc2ccc(Br)cc2)nc2ccccc12 | > 80 µM (inactive)
46 | CCc1ccc(OCCNc2cc(N3CCNC(C)C3)ccc2[N+](=O)[O-])cc1 (stereo not given) | 18.9 µM

Row | SMILES | EC50
47 | Oc1ccc(/C=N/Nc2nc(N3CCCC3)nc(N3CCCC3)n2)cc1O | > 80 µM (inactive)
48 | CN1Cc2c(N3CCOCC3)nc3sc(C(=O)c4ccc(Br)cc4)c(N)c3c2CC1(C)C | > 80 µM (inactive)
49 | Cn1nc(C(F)(F)F)c(/C=N/OC(=O)c2ccccc2)c1SCc1ccc(Cl)cc1 | 35.5 µM (inactive)
50 | O=C(C[C@H]1C/C=C\C[C@@H](NC(=O)OCC2c3ccccc3-c3ccccc32)C(=O)O[C@@H](c2ccccc2)CNC1=O)N[C@H](CO)Cc1ccccc1 | 20 µM
51 | Cc1ccc(C(C)C)c(OCc2ccc(C(=O)N/N=C/c3ccc(O)c(O)c3)cc2)c1 | 8.24 µM
52 | Cc1cccc(NC(=O)/C(C#N)=C/c2cn(CC(=O)NCc3ccco3)c3ccccc23)c1C | > 80 µM (inactive)
53 | COc1cc2nc(N3CCN(c4cc(C)ccc4C)CC3)nc(N)c2cc1OC | > 80 µM (inactive)
54 | COc1cc(/C=C2\CC(C(C)(C)C)C/C(=C\c3cc(OC)c(OC)c(OC)c3)C2=O)cc(OC)c1OC (stereo not given) | 39.3 µM (inactive)
55 | O=C(N/N=C/c1ccc(Cl)cc1)c1sccc1OCc1ccc(F)cc1 | 49.3 µM (inactive)
56 | O=C(Nc1ccc([N+](=O)[O-])cc1)c1nc[nH]c1C(=O)NC1CCCCC1 | > 80 µM (inactive)
57 | Cc1sc(NC(=O)c2cc(-c3ccc(Cl)cc3)nc3ccccc23)c(C(N)=O)c1C | 23.9 µM (inactive)
58 | O=C(COc1ccc(Cl)cc1Cl)NN=C1c2ccccc2-c2ccccc21 | > 80 µM (inactive)
59 | O=[N+]([O-])c1ccc(N/N=C/c2cccc(O)c2O)c(S(=O)(=O)N2CCOCC2)c1 | 21.2 µM (inactive)
60 | Nc1nc(Nc2cccc(C(F)(F)F)c2)nc(C(F)(F)F)n1 | 56.6 µM (inactive)
61 | CCOC(=O)c1nnc(-c2ccc(C)cc2)nc1Oc1ccccc1Cl | > 80 µM (inactive)
62 | CCc1cc2c(=O)c(-c3cnn(-c4ccccc4)c3)c(C)oc2cc1OCC(=O)Nc1cccc(C)c1 | > 80 µM (inactive)
63 | CC(NCC(O)COCCC12CC3CC(CC(C3)C1)C2)c1ccccc1 (stereo not given) | > 80 µM (inactive)
64 | O=C(Nc1cccc(-c2nc3cccnc3s2)c1)C1c2ccccc2Oc2ccccc21 | 4.67 µM
65 | Cn1ncc(N=Cc2c(O)ccc3ccccc23)c1C(=O)Nc1cccc(Cl)c1 | > 80 µM (inactive)
66 | COc1cc(CNCCO)cc(Cl)c1OCc1ccc(Cl)cc1Cl | > 80 µM (inactive)
67 | CCOC(=O)c1c(NC(=O)CNC2CCCc3ccccc32)sc(C(N)=O)c1C (stereo not given) | > 80 µM (inactive)
68 | CN(C)c1ccc(/C=C/[N+](=O)[O-])cc1 | > 80 µM (inactive)
69 | Cc1cc(NC(=O)CSc2ccc(-c3nc4cc(C)c(C)cc4[nH]3)cn2)no1 | > 80 µM (inactive)

Row | SMILES | EC50
70 | Oc1cc(-c2cccnc2)cc2cccnc12 | > 80 µM (inactive)
71 | COc1cc(/C=C(\C#N)c2nc3ccccc3[nH]2)cc(Br)c1OCc1ccc(F)cc1 | > 80 µM (inactive)
72 | O=C(C[n+]1ccc(-c2cc(C(=O)Nc3cccc(C(F)(F)F)c3)c3ccccc3n2)cc1)c1cccc([N+](=O)[O-])c1 | > 80 µM (inactive)
73 | O=C(CSc1nc2ccccc2c(=O)n1-c1ccccc1)N1CCc2ccccc21 | > 80 µM (inactive)
74 | Cc1cc(-n2c(SCC(=O)Nc3ccc(F)c(F)c3)nc3n[nH]c(C)c3c2=N)ccc1Cl | > 80 µM (inactive)
75 | COc1cc(/C=C/c2ccc3cccc(O)c3n2)ccc1O | > 80 µM (inactive)
76 | COc1ccc(-c2cc(C(F)F)n3ncc(C(=O)N4CCc5ccccc5C4)c3n2)cc1 | 28.6 µM (inactive)
77 | O=C1c2cccc3cc(Br)cc(c23)C(=O)N1Nc1ccc(Br)cc1 | > 80 µM (inactive)
78 | C=CCOc1ccc2cccc(/C=N/NC(=O)c3cc4cc([N+](=O)[O-])ccc4s3)c2c1 | 43.5 µM (inactive)
79 | COc1ccc2nc(NC(=O)c3cccc(-c4cc5ccccc5oc4=O)c3)sc2c1 | > 80 µM (inactive)
80 | CC1(C)CC(=O)C(C=Nc2ccc(C(=O)c3ccccc3)cc2N=CC2=C(O)CC(C)(C)CC2=O)=C(O)C1 | > 80 µM (inactive)
81 | COc1ccc(N2CCN(Cc3cc(=O)oc4cc(-c5ccccc5)c(O)cc34)CC2)cc1 | > 80 µM (inactive)
82 | CC(=O)Oc1ccc(-c2ccc(C(=O)OCC(=O)N(C)CC(=O)Nc3ccccc3Cl)cc2)cc1 | 2.46 µM
83 | Clc1ccc(-c2ccc(/C=N/Nc3nncc(-c4ccccc4)n3)o2)cc1 | > 80 µM (inactive)
84 | CCOC(=O)c1nnc(-c2ccc(C)cc2)nc1Sc1ccccc1Cl | > 80 µM (inactive)
85 | Cc1ccccc1OCc1nc(-c2ccc(NC(=O)c3ccc4c(c3)OCO4)cc2)no1 | > 80 µM (inactive)
86 | CCCC[C@@H](C)C[C@@H](C)C(=O)N(C)[C@@H](CC(C)C)C(=O)N[C@H](C(=O)N(C)[C@H](C(=O)N1C[C@@H](O)C[C@H]1C(=O)N1C(=O)C=C[C@@H]1C)C(C)C)C(C)OC(C)=O (stereo not given in full) | 13.4 µM
87 | CCOC(=O)c1nnn2c1nc(Nc1cccc(C(F)(F)F)c1)c1ccccc12 | 17.2 µM
88 | O=C(/C=C/c1ccccc1)NC(NC(=S)Nc1cccc(Cl)c1)C(Cl)(Cl)Cl (stereo not given) | > 80 µM (inactive)
89 | Cc1ccc(NS(=O)(=O)c2cc([N+](=O)[O-])ccc2N/N=C/c2sc(N3CCOCC3)nc2-c2ccccc2)c(C)c1 | > 80 µM (inactive)
90 | COc1ccc(-c2nn(-c3ccccc3)cc2/C=C/C(=O)OCC(=O)Nc2cccc(C#N)c2)cc1 | 11.9 µM
